Source: patent publication US20200246316A1, “METHODS OF TREATING POST-SURGICAL PAIN WITH A THIAZOLINE ANTI-HYPERALGESIC AGENT” (CERSCI THERAPEUTICS, INC., priority 2019, published 2020)
“And” between values parts separate entries of the source, which are not always exact repeats. Equal entries are not always repeated. “Also recorded” adds a separate entry of the source. Structures can show the parent of a compound that is named as a salt.

Experiments:
[1] = Rat pharmacokinetics after single PO dose; conditions: for Compound 1 Concentration in rat plasma: 100 mg/kg single PO, individual animals
Procedure: In both assays, a deuterated (Compound 1-d4) internal standard was used.
The objective of this non-GLP study was to determine the pharmacokinetics of Compound 1 after a single oral (gavage) dose in rats, and to determine if Compound 1 undergoes epimerization in the rat. Compound 1 was administered to CD® IGS [Crl:CD(SD)] (Sprague Dawley) rats (5/sex/group) as a single oral gavage dose of 100 mg/kg in a vehicle of 0.5% aqueous HPMC. Rats were dosed at a dose volume of 10 mL/kg body weight.

[2] = molecular target: T1, P-gp (Homo sapiens, UniProt P08183); test: Inhibition of efflux (ABC) transporters; type: in vitro ADME
T1 construct: Caco-2 cells; endogenous in cells; host or cells: Caco-2 cells
T1 sequence (P08183 whole entry): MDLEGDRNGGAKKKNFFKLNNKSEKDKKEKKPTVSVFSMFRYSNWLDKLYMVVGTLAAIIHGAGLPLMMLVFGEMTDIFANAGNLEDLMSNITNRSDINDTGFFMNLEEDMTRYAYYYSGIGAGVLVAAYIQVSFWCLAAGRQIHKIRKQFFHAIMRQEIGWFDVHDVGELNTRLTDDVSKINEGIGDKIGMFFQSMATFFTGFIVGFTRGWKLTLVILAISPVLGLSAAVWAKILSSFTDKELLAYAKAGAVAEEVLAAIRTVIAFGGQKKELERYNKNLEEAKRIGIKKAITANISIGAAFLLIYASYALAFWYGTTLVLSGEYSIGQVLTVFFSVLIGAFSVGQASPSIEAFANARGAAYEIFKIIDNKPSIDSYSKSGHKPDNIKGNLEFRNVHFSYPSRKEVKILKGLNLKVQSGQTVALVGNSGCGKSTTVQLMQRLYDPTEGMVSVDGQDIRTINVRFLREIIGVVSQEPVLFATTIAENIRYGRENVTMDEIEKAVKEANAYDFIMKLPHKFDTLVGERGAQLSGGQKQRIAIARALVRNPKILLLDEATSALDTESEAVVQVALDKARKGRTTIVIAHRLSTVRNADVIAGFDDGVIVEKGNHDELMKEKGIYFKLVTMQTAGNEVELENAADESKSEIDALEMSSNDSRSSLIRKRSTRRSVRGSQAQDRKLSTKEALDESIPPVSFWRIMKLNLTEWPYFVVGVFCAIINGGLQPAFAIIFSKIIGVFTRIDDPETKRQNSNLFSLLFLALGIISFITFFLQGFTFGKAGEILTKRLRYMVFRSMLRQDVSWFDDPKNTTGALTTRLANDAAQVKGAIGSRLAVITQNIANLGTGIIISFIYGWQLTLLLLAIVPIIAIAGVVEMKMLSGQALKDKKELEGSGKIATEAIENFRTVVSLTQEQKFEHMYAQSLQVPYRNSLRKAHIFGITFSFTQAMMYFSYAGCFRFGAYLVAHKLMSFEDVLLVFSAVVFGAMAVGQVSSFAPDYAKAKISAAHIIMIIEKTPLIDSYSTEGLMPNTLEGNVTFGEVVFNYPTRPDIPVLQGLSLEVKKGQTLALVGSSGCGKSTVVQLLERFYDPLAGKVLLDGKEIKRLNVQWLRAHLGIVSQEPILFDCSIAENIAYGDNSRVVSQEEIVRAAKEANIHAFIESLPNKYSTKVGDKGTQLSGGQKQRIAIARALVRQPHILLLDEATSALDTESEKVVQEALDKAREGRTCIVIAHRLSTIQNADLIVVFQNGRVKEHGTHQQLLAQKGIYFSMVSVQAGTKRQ

[3] = pKa values; type: physicochemical
[4] = Solubility in organic/aqueous solvents; type: physicochemical
Procedure: Polymorphic screening of crystalline Compound 1 was performed using 15 organic/aqueous solvent systems, including: n-heptane, methanol, toluene, acetone, tetrahydrofuran, iso-propanol, ethanol, ethyl acetate, iso-propyl acetate, tert-butylmethyl ether, […], 10% water/90% tetrahydrofuran, tert-butyl alcohol, water, and 1:1 tert-butyl alcohol:water.

[5] = tested on: lactoperoxidase oxidation (mediated by peroxide); test: Lactoperoxidase oxidation (mediated by peroxide); type: biochemical; conditions: physiological conditions (neutral pH)
Text: In cell-based assays of PN-mediated cytotoxicity, Compound 1 is protective. […] Chemically, Compound 1 can also react stoichiometrically with peroxynitrite to form a para-nitro adduct. Without being bound by theory, by targeting and removing peroxynitrite and peroxide, Compound 1 can disrupt the ensuing cascades that lead to hypersensitivity (protein modification, ion channel hyperexcitation) thus providing a long duration event in terms of pain relief.

[6] = tested on: rat models of diabetic neuropathy; test: Rat models of diabetic neuropathy (streptozotocin- and methylglyoxal-induced); type: in vivo; conditions: mono-hydrochloride
Text: In various embodiments, Compound 1 is efficacious in in vivo animal models of acute post-incisional hyperalgesia, both prophylactically and palliatively. […] In various embodiments, less than about 1%, 0.8%, 0.6%, 0.4%, 0.2%, 0.1%, 0.08%, 0.06%, 0.04%, 0.02%, or 0.01% of Compound 1 in blood plasma penetrates the BBB.

[7] = Effect of food on oral bioavailability in rats; type: in vivo, rat
Procedure: The effect of food on oral bioavailability was determined.

[8] = tested on: mouse model of severe incision; test: Mouse model of severe incision; type: in vivo; conditions: 10 mg/kg IP daily for 15 days; Days 1, 3, 6, 8, 10, 13, 15 and 21 after incision; FIG. 13; mono-hydrochloride
Text: Two incisional pain models were used to assess Compound 1 effects on hyperalgesia. The first model is referred to as the Brennan model in which, under anesthesia, a 1 cm longitudinal incision to the skin and underlying fascia of a rat hindpaw is made. The second is a variation but is a more invasive procedure in which the skin and muscle are spread apart using forceps which creates a longer-lasting hypersensitivity.
In a mouse model of severe incision (tissue and muscle spread with forceps), animals were at baseline for mechanical thresholds prior to incision and then given a daily dose of Compound 1 (10 mg/kg IP) or vehicle for 15 days.

[9] = Dog 7-day repeat dose PO study; type: in vivo; conditions: plasma, N = 1
Procedure: The objective was to develop a preliminary toxicity profile of Compound 1 following daily oral (gavage) administration for 7 days to male and female dogs to support dose selection for a 28-day toxicity study in dogs. Doses were selected based on the results of the MTD phase. Dose levels were 0 (Vehicle Control), 200, 350 and 400 mg/kg (1 dog/sex/group). The vehicle was 0.5% aqueous HPMC.
The animals used in this study were returned to the holding colony

[10] = female, Sprague Dawley (CD IGS, Crl:CD(SD)), rat, plasma, po, 100 mg/kg
[11] = male, Sprague Dawley, rat, plasma, po, 100 mg/kg
[12] = female, 200 mg/kg, Day 1, 200 mg/kg PO, F
[13] = female, 200 mg/kg, Day 7, 200 mg/kg PO, F
[14] = female, 350 mg/kg, Day 1, 350 mg/kg PO, F
[15] = female, 350 mg/kg, Day 7, 350 mg/kg PO, F
[16] = female, 400 mg/kg, Day 1, 400 mg/kg PO, F
[17] = female, 400 mg/kg, Day 7, 400 mg/kg PO, F
[18] = male, 200 mg/kg, Day 1, 200 mg/kg PO, M
[19] = male, 200 mg/kg, Day 7, 200 mg/kg PO, M
[20] = male, 350 mg/kg, Day 1, 350 mg/kg PO, M
[21] = male, 350 mg/kg, Day 7, 350 mg/kg PO, M
[22] = male, 400 mg/kg, Day 1, 400 mg/kg PO, M
[23] = male, 400 mg/kg, Day 7, 400 mg/kg PO, M

## CC1(C)SC(Nc2ccccc2O)=N[C@@H]1C(=O)O [Compound 1, (R)-2-(2-hydroxyphenylamino)-5,5-dimethyl-4,5-dihydrothiazole-4-carboxylic acid mono-hydrochloride]
[1]; Female, 0.5 h post-dose, mono-hydrochloride, 100 mg/kg
  Compound 1 Concentration in rat plasma: 36.4 µg/mL and 44.7 µg/mL and 43.2 µg/mL and 45.4 µg/mL
[1]; Female, 1 h post-dose, mono-hydrochloride, 100 mg/kg
  Compound 1 Concentration in rat plasma: 50.1 µg/mL and 63.6 µg/mL and 63.2 µg/mL and 69.7 µg/mL
[1]; Female, 2 h post-dose, mono-hydrochloride, 100 mg/kg
  Compound 1 Concentration in rat plasma: 63.1 µg/mL and 58.9 µg/mL and 60.1 µg/mL and 72.8 µg/mL
[1]; Female, 4 h post-dose, mono-hydrochloride, 100 mg/kg
  Compound 1 Concentration in rat plasma: 14.4 μg/mL (2×) and 31.5 μg/mL and 32.4 μg/mL and 20.4 μg/mL
[1]; Female, 8 h post-dose, mono-hydrochloride, 100 mg/kg
  Compound 1 Concentration in rat plasma: 1.78 µg/mL and 1.80 µg/mL and 4.14 µg/mL and 4.21 µg/mL and 2.23 µg/mL
[1]; Female, 24 h post-dose, mono-hydrochloride, 100 mg/kg
  Compound 1 Concentration in rat plasma: 0.250 µg/mL and 0.240 µg/mL and 0.489 µg/mL and 0.482 µg/mL and 0.428 µg/mL
[1]; Male, 0.5 h post-dose, mono-hydrochloride, 100 mg/kg
  Compound 1 Concentration in rat plasma: 17.5 µg/mL and 14.0 µg/mL and 11.4 µg/mL and 10.8 µg/mL
[1]; Male, 1 h post-dose, mono-hydrochloride, 100 mg/kg
  Compound 1 Concentration in rat plasma: 14.3 µg/mL and 22.6 µg/mL and 14.8 µg/mL and 11.0 µg/mL and 11.8 µg/mL
[1]; Male, 2 h post-dose, mono-hydrochloride, 100 mg/kg
  Compound 1 Concentration in rat plasma: 15.7 µg/mL and 14.0 µg/mL and 14.9 µg/mL and 10.7 µg/mL
[1]; Male, 4 h post-dose, mono-hydrochloride, 100 mg/kg
  Compound 1 Concentration in rat plasma: 4.82 µg/mL and 13.9 µg/mL and 1.56 µg/mL and 6.65 µg/mL and 3.81 µg/mL
[1]; Male, 8 h post-dose, mono-hydrochloride, 100 mg/kg
  Compound 1 Concentration in rat plasma: 2.81 µg/mL and 1.57 µg/mL and 1.53 µg/mL and 3.05 µg/mL
[1]; Male, 24 h post-dose, mono-hydrochloride, 100 mg/kg
  Compound 1 Concentration in rat plasma: 0.157 μg/mL and BQL (3×) and 1.04 μg/mL
[1]; [10]
  concentration at 0.5 h: 40.8 µg/mL
  concentration at 2 h: 62.6 µg/mL
  concentration at 8 h: 2.83 µg/mL
  concentration at 24 h: 0.378 µg/mL
[1]; [11]
  concentration at 0.5 h: 13.5 µg/mL
  concentration at 4 h: 6.15 µg/mL
  concentration at 8 h: 2.11 µg/mL
  concentration at 24 h: 0.599 µg/mL
[1]; rat plasma, mono-hydrochloride
  epimerization in vivo (chiral methods): no epimerization; also recorded: did not provide any evidence of epimerization
[2]; Caco-2 cells, probe substrate digoxin (10 μM), bidirectional transport, 1-600 μM tested
  IC50: > 600 µM
[2]; P-gp
  transporter inhibition: does not inhibit
[3]; Acidic (first)
  pKa: 2.29 ± 0.02
[3]; Acidic (second)
  pKa: 10.24 ± 0.03
[3]; Basic
  pKa: 6.97 ± 0.01
[4]; 10% water/tetrahydrofuran
  solubility: sparingly soluble
[4]; 10% water:iso-propyl acetate
  solubility: sparingly soluble
[4]; acetone
  solubility: less than sparingly soluble
[4]; ethanol
  solubility: sparingly soluble
[4]; ethyl acetate
  solubility: less than sparingly soluble
[4]; iso-propanol
  solubility: sparingly soluble
[4]; iso-propyl acetate
  solubility: less than sparingly soluble
[4]; methanol
  solubility: freely soluble
[4]; n-heptane
  solubility: less than sparingly soluble
[4]; tert-butyl alcohol
  solubility: less than sparingly soluble
[4]; tert-butyl alcohol:water (1:1)
  solubility: freely soluble
[4]; tert-butyl methyl ether
  solubility: less than sparingly soluble
[4]; tetrahydrofuran
  solubility: less than sparingly soluble
[4]; toluene
  solubility: less than sparingly soluble
[4]; water
  solubility: sparingly soluble
[5]
  removal of peroxynitrite in lactoperoxidase oxidation: catalytically remove peroxynitrite
[6]
  allodynia in models of diabetic neuropathy: alleviates allodynia; also recorded: reverses allodynia
[7]; 10 mg/kg
  peak plasma concentrations in fasted compared to fed rats: significantly increased
[7]; 100 mg/kg oral
  difference in pharmacokinetic properties fed vs fasted: No statistically significant differences
[7]; fed and fasted rats, 10 and 100 mg/kg
  oral absorption: well and rapidly absorbed
[8]
  hyperalgesia: protected from hyperalgesia; also recorded: did not experience hyperalgesia
[9]; [12]
  AUC(0-t): 582 µg·h/mL
  Cmax: 152 µg/mL
  half-life: 1.3 h
[9]; [13]
  AUC(0-t): 411 µg·h/mL
  Cmax: 103 µg/mL
  half-life: 1.5 h
[9]; [14]
  AUC(0-t): 834 µg·h/mL
  Cmax: 228 µg/mL
  half-life: 1.2 h
[9]; [15]
  AUC(0-t): 738 µg·h/mL
  Cmax: 207 µg/mL
  Tmax: 0.5 h
  half-life: 2.4 h
[9]; [16]
  AUC(0-t): 464 µg·h/mL
  Cmax: 109 µg/mL
  Tmax: 1 h
[9]; [17]
  AUC(0-t): 751 µg·h/mL
  Cmax: 183 µg/mL
  half-life: 2.5 h
[9]; [18]
  AUC(0-t): 538 µg·h/mL
  Cmax: 150 µg/mL
  half-life: 1.1 h
[9]; [19]
  AUC(0-t): 540 µg·h/mL
  Tmax: 1 h
  half-life: 1.4 h
[9]; [20]
  AUC(0-t): 613 µg·h/mL
  Cmax: 176 µg/mL
  half-life: 1.1 h
[9]; [21]
  AUC(0-t): 591 µg·h/mL
  Cmax: 184 µg/mL
  Tmax: 1 h
  half-life: 1.2 h
[9]; [22]
  AUC(0-t): 657 µg·h/mL
  Cmax: 167 µg/mL
  half-life: 1.2 h
[9]; [23]
  AUC(0-t): 210 µg·h/mL
  Cmax: 69 µg/mL
  Tmax: 1 h
  half-life: 1.3 h
